Assay results taken from US11098055B2, “Ester ACC inhibitors and uses thereof” (Gilead Apollo, LLC, priority 2015, dated 2021).
Values after ≈ are worked out from the molar mass of the structure shown.

What was measured:
[1] = tested on: C. albicans ATCC 90028; assay: Anti-Fungal (Candida) Activity Assay, broth microtiter MIC; format: cell-based; details: ATCC90028, 48 h, 3 replicates, MIC read at 48 h
Description: (§1) Compounds of the present invention were evaluated in an Anti-Fungal Activity Assay. An exemplary procedure for the assay, which measures the susceptibility of various Candida species to anti-fungal compounds, follows. Compounds to be tested (including fluconazole and amphotericin B) were dissolved in DMSO to obtain a solution having a concentration of 1 mg/mL. These stock solutions were sterile filtered using a 0.22 um nylon syringe filter, then diluted in sterile water to achieve a final concentration of 128 μg/mL.
(§2) All species were grown from frozen stock by directly plating on to freshly prepared Sabouraud Dextrose agar (BD, Difco) and incubated overnight in ambient air at 35° C. for 24 h. A direct suspension was prepared in RPMI 1640+MOPS (Lonza, Biowhittaker) by taking individual colonies from the overnight cultures using sterile swabs soaked in sterile saline. The concentration of the suspension was determined using pre-determined standard curves. These suspensions were then diluted down to 5×10^3 CFU/mL to achieve a final concentration of 2.5×10^3 CFU/mL once added to the microtiter plate as per CLSI guidelines (M27-A3, Vol. 28 No. 14).
(§3) Broth microtiter MIC challenge plates were prepared following CLSI guidelines (M27-A3, Vol. 28 No. 14). The original CLSI guidelines focused on reading Candida MICs after 48 h of incubation. As reading after only 24 h offers a clear advantage of patient care, QC limits are being established for all drugs at 24 h. That being said there are no known interpretive breakpoints for amphotericin B at 24 h and the current fluconazole interpretive breakpoints are based on a 48 h reading. The MIC for the test compounds were recorded at 48 h. All MIC determinations were achieved by visually comparing the growth found in the antibiotic challenged wells to that of the growth control.

[2] = tested on: C. parapsilosis ATCC 22019; assay: as above; format: cell-based; details: Lodderomyces parapsilosis, ATCC22019, 48 h, 3 replicates, MIC read at 48 h
Description: as §1, §2, §3

[3] = target: hACC2 (Homo sapiens, UniProt O00763); assay: In vitro ACC2 inhibition assay (ADP-Glo), human ACC2; format: biochemical
Description: (§4) An exemplary procedure for the in vitro ACC inhibition assay, which can be used to determine the inhibitory action of compounds of the invention toward either human (hACC2) or fungal (fACC2) ACC2, follows. The ADP-Glo™ Kinase Assay kit from Promega was used. The ADP-Glo™ Kinase Assay is a luminescent ADP detection assay to measure enzymatic activity by quantifying the amount of ADP produced during an enzyme reaction. The assay is performed in two steps; first, after the enzyme reaction, an equal volume of ADP-Glo™ Reagent is added to terminate the reaction and deplete the remaining ATP. Second, the Kinase Detection Reagent is added to simultaneously convert ADP to ATP and allow the newly synthesized ATP to be measured using a luciferase/luciferin reaction. Luminescence can be correlated to ADP concentrations by using an ATP-to-ADP conversion curve. The detailed procedure is as follows. 50 μL of the compound being tested (600 μM in DMSO) was added to a 384-well dilution plate. The compound was diluted 1:3 in succession in DMSO for each row for 11 wells. 0.5 μL ACC2 working solution was added to 384-well white Optiplate assay plate. 0.5 μL diluted compound solution in each column from step 2 was added to assay plate, each row containing 2 replicates. For the last 2 rows, 0.5 μL negative control (DMSO) was added in one row and 0.5 μL positive control (compound I-97) in the other. The plates were incubated at room temperature for 15 minutes. 5 μL substrate working solution was added to each well to initiate reaction. Final ACC2 reaction concentrations consist of: 5 nM ACC2, 20 μM ATP, 20 μM acetyl-CoA, 12 mM NaHCO3, 0.01% Brij35, 2 mM DTT, 5% DMSO, test compound concentrations: 30 μM, 10 μM, 3.33 μM, 1.11 μM, 0.37 μM, 0.123 μM, 0.0411 μM, 0.0137 μM, 0.00457 μM, 0.00152 μM, and 0.00051 μM. Plates were incubated at room temperature for 60 minutes. 10 μL ADP glo reagent was added. Plates were incubated at room temperature for 40 minutes. 20 μL kinase detection reagent was added. Plates were incubated at room temperature for 40 minutes, and then read on a Perkin Elmer EnVision 2104 plate reader for luminescence as Relative Light Units (RLU).
(§5) Data for each concentration, as well as the positive and negative controls, were averaged, and the standard deviation calculated. Percent inhibition was calculated by the formula: 100×(average negative control−compound)/(average negative control−average positive control). The IC50 for each compound was calculated by fitting the data with a non-linear regression equation: Y=Bottom+(Top−Bottom)/(1+10^((Log IC50−X)*HillSlope)), where X is the log of compound concentration and Y is percent inhibition.

[4] = tested on: C. krusei ATCC 6258; assay: Anti-Fungal (Candida) Activity Assay, broth microtiter MIC; format: cell-based, Candida krusei; details: Pichia kudriavzevii, ATCC6258, 48 h, 3 replicates, MIC read at 48 h
Description: as §1, §2, §3

[5] = target: fACC2 (UniProt Q00955); assay: In vitro ACC2 inhibition assay (ADP-Glo), fungal ACC2; format: biochemical
Description: as §4, §5

Chain of hACC2 (O00763 whole entry): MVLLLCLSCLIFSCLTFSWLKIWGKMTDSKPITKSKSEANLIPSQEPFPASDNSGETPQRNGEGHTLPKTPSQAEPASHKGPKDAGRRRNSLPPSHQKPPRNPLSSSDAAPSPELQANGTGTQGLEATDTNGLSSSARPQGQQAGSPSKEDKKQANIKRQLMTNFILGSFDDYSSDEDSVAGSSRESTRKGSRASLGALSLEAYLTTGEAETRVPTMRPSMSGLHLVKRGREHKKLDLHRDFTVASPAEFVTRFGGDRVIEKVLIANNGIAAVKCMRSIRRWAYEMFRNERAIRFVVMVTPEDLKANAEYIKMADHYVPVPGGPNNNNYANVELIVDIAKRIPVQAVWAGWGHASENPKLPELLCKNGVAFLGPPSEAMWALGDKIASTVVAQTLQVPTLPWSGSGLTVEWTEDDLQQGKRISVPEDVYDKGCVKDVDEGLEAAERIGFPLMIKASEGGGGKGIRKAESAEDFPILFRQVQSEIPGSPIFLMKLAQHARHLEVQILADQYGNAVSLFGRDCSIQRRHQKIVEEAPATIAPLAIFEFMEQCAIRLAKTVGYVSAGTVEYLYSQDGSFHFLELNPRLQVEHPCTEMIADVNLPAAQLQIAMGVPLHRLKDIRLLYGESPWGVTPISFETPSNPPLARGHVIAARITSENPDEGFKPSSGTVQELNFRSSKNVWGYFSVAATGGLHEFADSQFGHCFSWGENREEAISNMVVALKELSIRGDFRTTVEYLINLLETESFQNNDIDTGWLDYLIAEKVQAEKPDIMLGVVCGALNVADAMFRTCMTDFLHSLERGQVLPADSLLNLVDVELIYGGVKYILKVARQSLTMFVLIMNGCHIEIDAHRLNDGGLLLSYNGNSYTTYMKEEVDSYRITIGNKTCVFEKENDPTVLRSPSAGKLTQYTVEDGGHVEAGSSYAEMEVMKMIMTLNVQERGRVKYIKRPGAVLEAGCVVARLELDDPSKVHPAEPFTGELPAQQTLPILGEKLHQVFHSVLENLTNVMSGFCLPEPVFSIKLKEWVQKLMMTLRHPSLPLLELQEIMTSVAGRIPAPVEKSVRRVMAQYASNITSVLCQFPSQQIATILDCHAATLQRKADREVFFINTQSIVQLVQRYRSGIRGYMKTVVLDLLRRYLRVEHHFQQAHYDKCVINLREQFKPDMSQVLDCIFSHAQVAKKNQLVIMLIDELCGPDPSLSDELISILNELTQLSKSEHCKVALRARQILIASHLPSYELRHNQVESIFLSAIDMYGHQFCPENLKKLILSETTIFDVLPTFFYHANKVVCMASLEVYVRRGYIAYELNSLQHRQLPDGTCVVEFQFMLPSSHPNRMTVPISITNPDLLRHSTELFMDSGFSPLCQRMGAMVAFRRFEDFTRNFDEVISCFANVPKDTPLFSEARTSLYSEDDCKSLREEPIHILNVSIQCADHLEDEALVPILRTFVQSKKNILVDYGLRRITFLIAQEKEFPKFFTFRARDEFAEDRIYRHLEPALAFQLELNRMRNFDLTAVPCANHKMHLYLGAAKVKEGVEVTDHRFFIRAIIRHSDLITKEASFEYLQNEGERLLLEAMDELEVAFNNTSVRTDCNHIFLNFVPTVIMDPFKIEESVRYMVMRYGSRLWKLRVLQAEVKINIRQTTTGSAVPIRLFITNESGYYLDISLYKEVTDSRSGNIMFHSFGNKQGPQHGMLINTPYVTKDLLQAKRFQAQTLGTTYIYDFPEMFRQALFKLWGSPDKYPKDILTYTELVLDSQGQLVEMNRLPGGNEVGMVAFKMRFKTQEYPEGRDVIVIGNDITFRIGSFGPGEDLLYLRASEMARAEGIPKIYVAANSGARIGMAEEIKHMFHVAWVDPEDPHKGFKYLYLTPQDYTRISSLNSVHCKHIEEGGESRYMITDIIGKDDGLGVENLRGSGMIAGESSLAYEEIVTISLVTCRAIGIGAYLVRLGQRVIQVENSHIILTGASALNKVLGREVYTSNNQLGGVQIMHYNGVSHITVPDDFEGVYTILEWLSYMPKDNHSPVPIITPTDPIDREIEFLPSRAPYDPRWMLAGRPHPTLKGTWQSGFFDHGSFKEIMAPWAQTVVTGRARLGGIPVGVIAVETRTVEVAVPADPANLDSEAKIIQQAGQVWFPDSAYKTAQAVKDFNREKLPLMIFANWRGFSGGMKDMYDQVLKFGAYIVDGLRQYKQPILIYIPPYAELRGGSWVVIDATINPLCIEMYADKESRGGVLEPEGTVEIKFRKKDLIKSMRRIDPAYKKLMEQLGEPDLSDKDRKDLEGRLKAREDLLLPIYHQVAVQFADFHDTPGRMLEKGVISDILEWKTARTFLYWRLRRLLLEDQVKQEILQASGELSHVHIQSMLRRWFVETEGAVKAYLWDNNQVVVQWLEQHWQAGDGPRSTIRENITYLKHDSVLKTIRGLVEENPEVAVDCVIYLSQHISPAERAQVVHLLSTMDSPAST
Chain of fACC2 (Q00955 whole entry): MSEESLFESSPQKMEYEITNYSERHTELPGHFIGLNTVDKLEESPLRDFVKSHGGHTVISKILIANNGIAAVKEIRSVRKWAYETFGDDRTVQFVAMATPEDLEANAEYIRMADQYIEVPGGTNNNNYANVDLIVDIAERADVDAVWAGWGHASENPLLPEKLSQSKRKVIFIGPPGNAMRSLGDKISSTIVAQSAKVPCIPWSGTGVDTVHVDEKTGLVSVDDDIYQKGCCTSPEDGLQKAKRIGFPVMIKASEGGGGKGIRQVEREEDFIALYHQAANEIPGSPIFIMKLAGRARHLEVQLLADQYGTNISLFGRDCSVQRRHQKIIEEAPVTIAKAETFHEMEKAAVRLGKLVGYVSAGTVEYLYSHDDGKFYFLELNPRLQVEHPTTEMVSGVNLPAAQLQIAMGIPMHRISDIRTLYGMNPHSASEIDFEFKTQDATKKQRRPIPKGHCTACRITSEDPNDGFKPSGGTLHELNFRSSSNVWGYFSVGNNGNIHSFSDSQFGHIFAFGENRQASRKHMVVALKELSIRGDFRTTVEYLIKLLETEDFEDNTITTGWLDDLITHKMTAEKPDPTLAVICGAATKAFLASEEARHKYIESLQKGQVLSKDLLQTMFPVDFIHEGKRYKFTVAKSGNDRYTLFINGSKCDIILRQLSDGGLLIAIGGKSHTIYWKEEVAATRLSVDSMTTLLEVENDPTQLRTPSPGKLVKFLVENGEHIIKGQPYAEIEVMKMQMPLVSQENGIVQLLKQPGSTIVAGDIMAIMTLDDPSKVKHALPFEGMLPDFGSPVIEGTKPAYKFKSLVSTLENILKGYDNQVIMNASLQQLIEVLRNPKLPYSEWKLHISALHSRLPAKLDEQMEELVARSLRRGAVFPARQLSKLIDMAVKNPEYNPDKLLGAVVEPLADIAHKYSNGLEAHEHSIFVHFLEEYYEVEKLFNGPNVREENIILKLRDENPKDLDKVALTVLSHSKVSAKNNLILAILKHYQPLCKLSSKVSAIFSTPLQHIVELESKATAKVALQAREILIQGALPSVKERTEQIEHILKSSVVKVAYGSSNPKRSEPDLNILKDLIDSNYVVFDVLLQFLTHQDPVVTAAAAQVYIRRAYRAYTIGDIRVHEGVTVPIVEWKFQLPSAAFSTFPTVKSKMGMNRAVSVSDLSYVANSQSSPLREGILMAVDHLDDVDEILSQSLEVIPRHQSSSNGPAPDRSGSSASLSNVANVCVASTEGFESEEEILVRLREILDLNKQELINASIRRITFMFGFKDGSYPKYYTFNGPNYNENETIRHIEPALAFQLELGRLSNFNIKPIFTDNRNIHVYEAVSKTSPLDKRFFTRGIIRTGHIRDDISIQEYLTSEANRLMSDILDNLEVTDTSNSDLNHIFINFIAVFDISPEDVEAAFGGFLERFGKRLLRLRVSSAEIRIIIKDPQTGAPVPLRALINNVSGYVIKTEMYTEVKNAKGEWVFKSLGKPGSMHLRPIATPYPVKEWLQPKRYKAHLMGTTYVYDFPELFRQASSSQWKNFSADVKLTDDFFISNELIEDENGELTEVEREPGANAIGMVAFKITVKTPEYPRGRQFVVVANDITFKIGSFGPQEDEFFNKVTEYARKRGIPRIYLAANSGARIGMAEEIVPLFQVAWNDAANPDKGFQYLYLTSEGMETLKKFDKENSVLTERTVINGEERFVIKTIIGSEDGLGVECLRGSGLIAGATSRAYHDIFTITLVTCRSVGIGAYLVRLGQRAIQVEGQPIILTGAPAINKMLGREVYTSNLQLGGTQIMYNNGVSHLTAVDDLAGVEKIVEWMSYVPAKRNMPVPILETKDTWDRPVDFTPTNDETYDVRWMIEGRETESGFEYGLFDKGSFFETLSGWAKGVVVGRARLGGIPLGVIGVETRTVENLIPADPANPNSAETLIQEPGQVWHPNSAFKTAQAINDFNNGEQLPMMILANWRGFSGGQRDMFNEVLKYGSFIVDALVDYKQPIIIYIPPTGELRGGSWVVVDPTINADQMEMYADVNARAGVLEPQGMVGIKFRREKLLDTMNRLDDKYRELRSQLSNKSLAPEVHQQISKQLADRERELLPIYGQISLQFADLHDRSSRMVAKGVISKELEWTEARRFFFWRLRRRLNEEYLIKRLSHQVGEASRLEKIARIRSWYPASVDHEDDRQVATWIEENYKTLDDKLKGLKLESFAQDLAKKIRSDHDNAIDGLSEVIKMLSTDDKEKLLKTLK

SMILES | MIC ([1]; Table 3a) [µg/mL] | MIC ([1]; Table 3b (additional results)) [µg/mL] | MIC ([2]; Table 3a) [µg/mL] | MIC ([2]; Table 3b (additional results)) [µg/mL] | IC50 ([3]; Table 2a) [nM] | IC50 ([3]; Table 2b (additional results)) [nM] | MIC ([4]; Table 3a) [µg/mL] | MIC ([4]; Table 3b (additional results)) [µg/mL] | IC50 ([5]; Table 2a) [nM] | IC50 ([5]; Table 2b (additional results)) [nM]
CCOC(=O)c1sc2c(c1C)c(=O)n(C(C)(C)C(=O)N1CCOCC1)c(=O)n2C[C@H](OC(C)C)c1ccccc1OC [Compound I-5, (R)-ethyl 1-(2-isopropoxy-2-(2-methoxyphenyl)ethyl)-5-methyl-3-(2-methyl-1-morpholino-1-oxopropan-2-yl)-2,4-dioxo-1,2,3,4-tetrahydrothieno[2,3-d]pyrimidine-6-carboxylate] | > 4.1 | > 4.1 | > 4.1 | 2.1 to 4 (≈ 3.49 to 6.65 µM) | 10 to 40 | 10 to 40 | > 4.1 | 2.1 to 4 (≈ 3.49 to 6.65 µM) | 3 to 10 | 3 to 10
CCOC(=O)c1sc2c(c1C)c(=O)n([C@H](C)C(=O)NC(C)C)c(=O)n2C[C@H](OCCC#N)c1cc(F)ccc1OC [Compound I-21, ethyl 1-((R)-2-(2-cyanoethoxy)-2-(5-fluoro-2-methoxyphenyl)ethyl)-3-((R)-1-(isopropylamino)-1-oxopropan-2-yl)-5-methyl-2,4-dioxo-1,2,3,4-tetrahydrothieno[2,3-d]pyrimidine-6-carboxylate] | – | 1.1 to 2 (≈ 1.87 to 3.4 µM) | – | 2.1 to 4 (≈ 3.57 to 6.8 µM) | – | 0.3 to 3 | – | 2.1 to 4 (≈ 3.57 to 6.8 µM) | – | 0.3 to 3
CCOC(=O)c1sc2c(c1C)c(=O)n(C(C)(C)C(=O)NC(C)C)c(=O)n2C[C@H](OC[C@@H](C)C#N)c1cc(F)ccc1OC [Compound I-35, ethyl 1-((R)-2-((S)-2-cyanopropoxy)-2-(5-fluoro-2-methoxyphenyl)ethyl)-3-(1-(isopropylamino)-2-methyl-1-oxopropan-2-yl)-5-methyl-2,4-dioxo-1,2,3,4-tetrahydrothieno[2,3-d]pyrimidine-6-carboxylate] | – | 0.25 to 1 (≈ 0.405 to 1.62 µM) | – | 0.25 to 1 (≈ 0.405 to 1.62 µM) | – | 3 to 10 | – | 2.1 to 4 (≈ 3.41 to 6.49 µM) | – | 0.3 to 3
CCNC(=O)[C@H](C)n1c(=O)c2c(C)c(C(=O)OCC)sc2n(C[C@H](OCCC#N)c2cc(F)ccc2OC)c1=O [Compound I-42, ethyl 1-((R)-2-(2-cyanoethoxy)-2-(5-fluoro-2-methoxyphenyl)ethyl)-3-((S)-1-(ethylamino)-1-oxopropan-2-yl)-5-methyl-2,4-dioxo-1,2,3,4-tetrahydrothieno[2,3-d]pyrimidine-6-carboxylate] | – | 2.1 to 4 (≈ 3.65 to 6.96 µM) | – | 2.1 to 4 (≈ 3.65 to 6.96 µM) | – | 3 to 10 | – | 2.1 to 4 (≈ 3.65 to 6.96 µM) | – | 0.3 to 3
CCNC(=O)C(C)(C)n1c(=O)c2c(C)c(C(=O)OCC)sc2n(C[C@H](OC(C)C)c2ccccc2OC)c1=O [Compound I-4, (R)-ethyl 3-(1-(ethylamino)-2-methyl-1-oxopropan-2-yl)-1-(2-isopropoxy-2-(2-methoxyphenyl)ethyl)-5-methyl-2,4-dioxo-1,2,3,4-tetrahydrothieno[2,3-d]pyrimidine-6-carboxylate] | 2.1 to 4 (≈ 3.75 to 7.15 µM) | 2.1 to 4 (≈ 3.75 to 7.15 µM) | > 4.1 | 2.1 to 4 (≈ 3.75 to 7.15 µM) | 10 to 40 | 10 to 40 | 2.1 to 4 (≈ 3.75 to 7.15 µM) | 2.1 to 4 (≈ 3.75 to 7.15 µM) | 3 to 10 | 3 to 10
CCOC(=O)c1sc2c(c1C)c(=O)n([C@@H](C)C(N)=O)c(=O)n2C[C@H](OCCC#N)c1cc(F)ccc1OC [Compound I-25, ethyl 3-((S)-1-amino-1-oxopropan-2-yl)-1-((R)-2-(2-cyanoethoxy)-2-(5-fluoro-2-methoxyphenyl)ethyl)-5-methyl-2,4-dioxo-1,2,3,4-tetrahydrothieno[2,3-d]pyrimidine-6-carboxylate] | – | 2.1 to 4 (≈ 3.84 to 7.32 µM) | – | 2.1 to 4 (≈ 3.84 to 7.32 µM) | – | 3 to 10 | – | 1.1 to 2 (≈ 2.01 to 3.66 µM) | – | 0.3 to 3
CCOC(=O)c1sc2c(c1C)c(=O)n(C(C)(C)C(=O)N1CCCC1)c(=O)n2C[C@H](OCCC#N)c1cc(F)ccc1OC [Compound I-16, (R)-ethyl 1-(2-(2-cyanoethoxy)-2-(5-fluoro-2-methoxy-phenyl)ethyl)-5-methyl-3-(2-methyl-1-oxo-1-(pyrrolidin-1-yl)propan-2-yl)-2,4-dioxo-1,2,3,4-tetrahydrothieno[2,3-d]pyrimidine-6-carboxylate] | > 4.1 | 2.1 to 4 (≈ 3.42 to 6.51 µM) | > 4.1 | 0.25 to 1 (≈ 0.407 to 1.63 µM) | 3 to 10 | – | > 4.1 | 2.1 to 4 (≈ 3.42 to 6.51 µM) | 0.6 to 3 | 0.3 to 3
CCNC(=O)C(C)(C)n1c(=O)c2c(C)c(C(=O)OCC)sc2n(C[C@H](OCCC#N)c2ccccc2OC)c1=O [Compound I-32, ethyl (R)-1-(2-(2-cyanoethoxy)-2-(2-methoxyphenyl)ethyl)-3-(1-(ethylamino)-2-methyl-1-oxopropan-2-yl)-5-methyl-2,4-dioxo-1,2,3,4-tetrahydrothieno[2,3-d]pyrimidine-6-carboxylate] | – | 2.1 to 4 (≈ 3.68 to 7.01 µM) | – | > 4.1 | – | 3 to 10 | – | 0.25 to 1 (≈ 0.438 to 1.75 µM) | – | 0.3 to 3
CCOC(=O)c1sc2c(c1C)c(=O)n(C(C)(C)C(=O)N1CCCC1)c(=O)n2C[C@H](OC1CCOCC1)c1ccccc1OC [Compound I-3, ethyl (R)-1-(2-(2-methoxyphenyl)-2-((tetrahydro-2H-pyran-4-yl)oxy)ethyl)-5-methyl-3-(2-methyl-1-oxo-1-(pyrrolidin-1-yl)propan-2-yl)-2,4-dioxo-1,2,3,4-tetrahydrothieno[2,3-d]pyrimidine-6-carboxylate] | 0.25 to 1 (≈ 0.398 to 1.59 µM) | 0.25 to 1 (≈ 0.398 to 1.59 µM) | 0.25 to 1 (≈ 0.398 to 1.59 µM) | 0.25 to 1 (≈ 0.398 to 1.59 µM) | 10 to 40 | 10 to 40 | 0.25 to 1 (≈ 0.398 to 1.59 µM) | 2.1 to 4 (≈ 3.35 to 6.37 µM) | 0.6 to 3 | 0.3 to 3
CCOC(=O)c1sc2c(c1C)c(=O)n(C(C)(C)C(=O)NC(C)C)c(=O)n2C[C@H](OCCOC)c1cc(F)ccc1OC [Compound I-11, (R)-ethyl 1-(2-(5-fluoro-2-methoxyphenyl)-2-(2-methoxy-ethoxy)ethyl)-3-(1-(isopropylamino)-2-methyl-1-oxopropan-2-yl)-5-methyl-2,4-dioxo-1,2,3,4-tetrahydrothieno[2,3-d]pyrimidine-6-carboxylate] | 2.1 to 4 (≈ 3.46 to 6.58 µM) | 2.1 to 4 (≈ 3.46 to 6.58 µM) | 2.1 to 4 (≈ 3.46 to 6.58 µM) | 1.1 to 2 (≈ 1.81 to 3.29 µM) | 10 to 40 | 10 to 40 | 2.1 to 4 (≈ 3.46 to 6.58 µM) | 2.1 to 4 (≈ 3.46 to 6.58 µM) | 0.6 to 3 | 0.3 to 3
